{"source": "PubChem BioAssay (NCI)", "assay_in_all_cases": "growth of human tumour cells (NCI), 48 h", "key": {"[1]": {"tested_on": "ACHN renal"}, "[2]": {"tested_on": "A498 renal"}, "[3]": {"tested_on": "HCC-2998 colon"}, "[4]": {"tested_on": "SK-MEL-28 melanoma"}, "[5]": {"tested_on": "DU-145 prostate"}, "[6]": {"tested_on": "UO-31 renal"}, "[7]": {"tested_on": "SNB-75 CNS"}, "[8]": {"tested_on": "TK-10 renal"}, "[9]": {"tested_on": "NCI-H226 lung"}, "[10]": {"tested_on": "MDA-MB-231 breast"}, "[11]": {"tested_on": "MCF7 breast"}, "[12]": {"tested_on": "SK-OV-3 ovarian"}, "[13]": {"tested_on": "T-47D breast"}, "[14]": {"tested_on": "SNB-19 CNS"}, "[15]": {"tested_on": "SK-MEL-2 melanoma"}, "[16]": {"tested_on": "SN12C renal"}, "[17]": {"tested_on": "OVCAR-4 ovarian"}, "[18]": {"tested_on": "HOP-62 NSCLC"}, "[19]": {"tested_on": "SK-MEL-5 melanoma"}, "[20]": {"tested_on": "NCI/ADR-RES ovarian"}, "[21]": {"tested_on": "OVCAR-8 ovarian"}, "[22]": {"tested_on": "SF-539 CNS"}, "[23]": {"tested_on": "RPMI-8226 leukemia"}, "[24]": {"tested_on": "HT29 colon"}, "[25]": {"tested_on": "786-0 renal"}, "[26]": {"tested_on": "HL-60(TB) leukemia"}, "[27]": {"tested_on": "NCI-H23 lung"}, "[28]": {"tested_on": "K-562 leukemia"}, "[29]": {"tested_on": "SW-620 colon"}, "[30]": {"tested_on": "HCT-15 colon"}, "[31]": {"tested_on": "HCT-116 colon"}, "[32]": {"tested_on": "IGROV1 ovarian"}, "[33]": {"tested_on": "COLO 205 colon"}, "[34]": {"tested_on": "U251 CNS"}, "[35]": {"tested_on": "RXF 393 renal"}, "[36]": {"tested_on": "UACC-257 melanoma"}, "[37]": {"tested_on": "MALME-3M melanoma"}, "[38]": {"tested_on": "KM12 colon"}, "[39]": {"tested_on": "SF-295 CNS"}, "[40]": {"tested_on": "HOP-92 NSCLC"}, "[41]": {"tested_on": "NCI-H460 lung"}, "[42]": {"tested_on": "CCRF-CEM leukemia"}, "[43]": {"tested_on": "UACC-62 melanoma"}, "[44]": {"tested_on": "SF-268 CNS"}, "[45]": {"tested_on": "OVCAR-5 ovarian"}, "[46]": {"tested_on": "A549 NSCLC"}, "[47]": {"tested_on": "HS 578T breast"}, "[48]": {"tested_on": "MOLT-4 leukemia"}, "[49]": {"tested_on": "SR leukemia"}, "[50]": {"tested_on": "EKVX NSCLC"}, "[51]": {"tested_on": "MDA-MB-435"}, "[52]": {"tested_on": "M14 melanoma"}}, "note": "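96-well plates; 48 h exposure; 5 concentrations. Endpoints by linear interpolation between flanking doses. Not reached: highest tested concentration assigned. GI50 = concentration required for 50% inhibition of growth. TGI: concentration producing complete growth inhibition.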 Where a SMILES comes first, the peptide text is derived from it. [ ]: non-standard residue; d: D form. The star is where a group is joined. ξ: configuration not given here. Decanoyl(3R-OH) = CCCCCCC[C@@H](O)CC(=O)*; ξK = NCCCCC(N)C(=O)O; ξP = O=C(O)C1CCCN1", "data": [{"smiles": "C=CCOC(=O)CCCCCCCCCCCCCCCOC(=O)C1=C(CCC[C@@H](C)O[Si](C)(C)C(C)(C)C)N=C(N)N2[C@H](CC3(CC/C=C\\[C@H](CC)O[Si](C(C)C)(C(C)C)C(C)C)OCCO3)CC[C@@H]12", "values": [{"measurement": "TGI", "setting": "[1]", "value": "> 100", "unit": "µM"}, {"measurement": "TGI", "setting": "[2]", "value": "> 100", "unit": "µM"}, {"measurement": "TGI", "setting": "[3]", "value": "> 100", "unit": "µM"}, {"measurement": "TGI", "setting": "[4]", "value": "> 100", "unit": "µM"}, {"measurement": "TGI", "setting": "[5]", "value": "> 100", "unit": "µM"}, {"measurement": "TGI", "setting": "[6]", "value": "> 100", "unit": "µM"}, {"measurement": "TGI", "setting": "[7]", "value": "> 100", "unit": "µM"}, {"measurement": "TGI", "setting": "[8]", "value": "> 100", "unit": "µM"}, {"measurement": "TGI", "setting": "[9]", "value": "> 100", "unit": "µM"}, {"measurement": "TGI", "setting": "[10]", "value": "> 100", "unit": "µM"}, {"measurement": "TGI", "setting": "[11]", "value": "> 100", "unit": "µM"}, {"measurement": "TGI", "setting": "[12]", "value": "> 100", "unit": "µM"}, {"measurement": "TGI", "setting": "[13]", "value": "> 100", "unit": "µM"}, {"measurement": "TGI", "setting": "[14]", "value": "> 100", "unit": "µM"}, {"measurement": "TGI", "setting": "[15]", "value": "> 100", "unit": "µM"}, {"measurement": "TGI", "setting": "[16]", "value": "> 100", "unit": "µM"}, {"measurement": "TGI", "setting": "[17]", "value": "> 100", "unit": "µM"}]}, {"smiles": "NNC(N)=Nc1cccc2ccccc12", "values": [{"measurement": "TGI", "setting": "[18]", "value": "> 100", "unit": "µM"}, {"measurement": "TGI", "setting": "[19]", "value": "> 100", "unit": "µM"}, {"measurement": "TGI", "setting": "[20]", "value": "> 100", "unit": "µM"}, {"measurement": "TGI", "setting": "[21]", "value": "> 100", "unit": "µM"}, {"measurement": "TGI", "setting": "[1]", "value": "> 100", "unit": "µM"}, {"measurement": "TGI", "setting": "[22]", "value": "> 100", "unit": "µM"}, {"measurement": "TGI", "setting": "[2]", "value": "> 100", "unit": "µM"}, {"measurement": "TGI", "setting": "[23]", "value": "> 100", "unit": "µM"}, {"measurement": "TGI", "setting": "[24]", "value": "> 100", "unit": "µM"}, {"measurement": "TGI", "setting": "[3]", "value": "> 100", "unit": "µM"}, {"measurement": "TGI", "setting": "[4]", "value": "> 100", "unit": "µM"}, {"measurement": "TGI", "setting": "[5]", "value": "> 100", "unit": "µM"}, {"measurement": "TGI", "setting": "[25]", "value": "> 100", "unit": "µM"}, {"measurement": "TGI", "setting": "[6]", "value": "> 100", "unit": "µM"}, {"measurement": "TGI", "setting": "[26]", "value": "> 100", "unit": "µM"}, {"measurement": "TGI", "setting": "[7]", "value": "> 100", "unit": "µM"}, {"measurement": "TGI", "setting": "[27]", "value": "> 100", "unit": "µM"}, {"measurement": "TGI", "setting": "[28]", "value": "> 100", "unit": "µM"}, {"measurement": "TGI", "setting": "[29]", "value": "> 100", "unit": "µM"}, {"measurement": "TGI", "setting": "[8]", "value": "> 100", "unit": "µM"}, {"measurement": "TGI", "setting": "[9]", "value": "> 100", "unit": "µM"}, {"measurement": "TGI", "setting": "[30]", "value": "> 100", "unit": "µM"}, {"measurement": "TGI", "setting": "[31]", "value": "> 100", "unit": "µM"}, {"measurement": "TGI", "setting": "[32]", "value": "> 100", "unit": "µM"}, {"measurement": "TGI", "setting": "[33]", "value": "> 100", "unit": "µM"}, {"measurement": "TGI", "setting": "[10]", "value": "> 100", "unit": "µM"}, {"measurement": "TGI", "setting": "[34]", "value": "> 100", "unit": "µM"}, {"measurement": "TGI", "setting": "[11]", "value": "> 100", "unit": "µM"}, {"measurement": "TGI", "setting": "[12]", "value": "> 100", "unit": "µM"}, {"measurement": "TGI", "setting": "[35]", "value": "> 100", "unit": "µM"}, {"measurement": "TGI", "setting": "[36]", "value": "> 100", "unit": "µM"}, {"measurement": "TGI", "setting": "[37]", "value": "> 100", "unit": "µM"}, {"measurement": "TGI", "setting": "[13]", "value": "> 100", "unit": "µM"}, {"measurement": "TGI", "setting": "[38]", "value": "> 100", "unit": "µM"}, {"measurement": "TGI", "setting": "[39]", "value": "> 100", "unit": "µM"}, {"measurement": "TGI", "setting": "[40]", "value": 92.4, "unit": "µM"}, {"measurement": "TGI", "setting": "[41]", "value": "> 100", "unit": "µM"}, {"measurement": "TGI", "setting": "[42]", "value": "> 100", "unit": "µM"}, {"measurement": "TGI", "setting": "[43]", "value": "> 100", "unit": "µM"}, {"measurement": "TGI", "setting": "[44]", "value": "> 100", "unit": "µM"}, {"measurement": "TGI", "setting": "[45]", "value": "> 100", "unit": "µM"}, {"measurement": "TGI", "setting": "[46]", "value": "> 100", "unit": "µM"}, {"measurement": "TGI", "setting": "[14]", "value": "> 100", "unit": "µM"}, {"measurement": "TGI", "setting": "[47]", "value": "> 100", "unit": "µM"}, {"measurement": "TGI", "setting": "[48]", "value": "> 100", "unit": "µM"}, {"measurement": "TGI", "setting": "[49]", "value": "> 100", "unit": "µM"}, {"measurement": "TGI", "setting": "[50]", "value": "> 100", "unit": "µM"}, {"measurement": "TGI", "setting": "[16]", "value": "> 100", "unit": "µM"}, {"measurement": "TGI", "setting": "[17]", "value": "> 100", "unit": "µM"}, {"measurement": "TGI", "setting": "[51]", "value": "> 100", "unit": "µM"}, {"measurement": "TGI", "setting": "[52]", "value": "> 100", "unit": "µM"}]}, {"smiles": "CCCCCCC[C@@H](O)CC(=O)N[C@H](CCCCN)C(=O)N[C@H](Cc1c[nH]c2ccccc12)C(=O)NC(CCCCN)C(=O)N[C@H](CC(C)C)C(=O)N[C@H](Cc1ccccc1)C(=O)N[C@H](CCCCN)C(=O)N[C@H](CCCCN)C(=O)N[C@H](CC(C)C)C(=O)N1CCCC1C(=O)N[C@H](CCCCN)C(=O)N[C@H](Cc1ccccc1)C(=O)N[C@H](CC(C)C)C(=O)N[C@H](Cc1c[nH]cn1)C(=O)N[C@H](CC(C)C)C(=O)N[C@H](C)C(=O)N[C@H](CCCCN)C(=O)N[C@H](CCCCN)C(=O)N[C@H](Cc1ccccc1)C(=O)O", "note": "(stereo partly drawn) ({Decanoyl(3R-OH)}-[dK][dW][ξK][dL][dF][dK][dK][dL][ξP][dK][dF][dL][dH][dL][dA][dK][dK][dF]-OH)", "values": [{"measurement": "GI50", "setting": "[21]", "value": 0.814, "unit": "µM"}, {"measurement": "TGI", "setting": "[21]", "value": 33.3, "unit": "µM"}, {"measurement": "GI50", "setting": "[5]", "value": 0.607, "unit": "µM"}, {"measurement": "TGI", "setting": "[5]", "value": 1.12, "unit": "µM"}, {"measurement": "GI50", "setting": "[26]", "value": 0.743, "unit": "µM"}, {"measurement": "TGI", "setting": "[26]", "value": 1.71, "unit": "µM"}]}]}
